Assays:
[1] = Localized 13C MRS measurement of in vivo 13C cytidine in brain (9.4 T); settings: in vivo 13C brain cytidine content, external reference method
Method: All in vivo MRS studies are performed in a horizontal 9.4-T/31-cm magnet (Magnex Scientific, UK) with an 11-cm-diameter gradient coil capable of switching to 300 mT/m in 500 μs, interfaced with an INOVA console (Varian Inc., Calif., USA). A quadrature ^1H radiofrequency (RF) 14-mm-diameter coil and a linear polarized, three-turn 11-mm-diameter ^13C RF coil are used as the transceiver. A sphere containing 99% ^13C-enriched glucose (Glu) is located at the center of the ^13C coil as an external reference, and the coil is placed on the subject's head. Fast Automatic Shimming Technique by Mapping Along Projections (FASTMAP) shimming with echo-planar imaging (EPI) readout is applied to adjust B0 field homogeneity in a initially nominal ˜440 μL volume of interest (VOI). The Single-shot Inversion Recovery based Non-Echo (SIRENE) sequence is applied for 3D localization with optimized outer volume suppression to ensure elimination of signals from noncerebral tissue, and bilevel WALTZ-16 RF pulses are applied at the water frequency for generation of a nuclear Overhauser effect (NOE) and for decoupling during acquisition.
Twelve 64-scan localized ^13C MR spectra (repetition time (TR)=1 s) acquired and are summed, apodized by 20-Hz exponential line-broadening, zero-filled, and Fourier transformed. […] In vivo ^13C brain cytidine content ([^13C-Cyt]invivo) is calculated.

[2] = Localized in vivo 1H MRS of parietal white matter and occipital gray matter (1.5T) for cytidine levels; settings: brain cytidine-containing metabolites, brain water as internal reference
Method: All MRI scans and localized in vivo ^1H MRS procedures are performed on a system equipped with shielded gradients (GE 1.5T Signa; General Electric Medical Systems; Milwaukee, Wis.) from 9 PM to midnight. Spectroscopy is performed following a routine brain MRI analysis, and the T2-weighted images are used for localization of an area of interest. […]
The major metabolites detectable in ^1H MRS are CDP choline, cytidine, cytidine 5′-monophosphate (CMP), cytidine 5′-diphosphate (CDP), cytidine 5′-triphosphate (CTP), deoxycytidine 5′-monophosphate (dCMP), deoxycytidine 5′-diphosphate (dCDP), deoxycytidine 5′-triphosphate (dCTP). […] The areas under the peaks is measured by Lorenzian line-shape fitting. The absolute concentrations of CDP choline, cytidine, cytidine 5′-monophosphate (CMP), cytidine 5′-diphosphate (CDP), cytidine 5′-triphosphate (CTP), deoxycytidine 5′-monophosphate (dCMP), deoxycytidine 5′-diphosphate (dCDP), deoxycytidine 5′-triphosphate (dCTP) is calculated from the processed spectrum using the brain water as an internal reference. All concentrations are expressed as millimoles per weight of uridine taken. The reference brain water signals used is fixed in the PWM and in the OGM, as calculated.

[3] = 1H-MRS of the hippocampus (3T, PRESS), metabolite ratios to administered uridine; type: in vivo; settings: brain cytidine-containing metabolites (CDP choline, cytidine, CMP, CDP, CTP, dCMP, dCDP, dCTP) as ratio of administered uridine, left and right hippocampus
Method: MRI and ^1H-MRS are performed on a 3T scanner. Anatomical MR images are obtained in the coronal plane using a 3D magnetization-prepared rapid gradient echo (MPRAGE) sequence. The sequence is acquired with a field of view of 16 cm, 32 slices with a 3-mm slice thickness, 256×256 matrix size 600-msec inversion time, repetition time (TR) of 8 msec, echo time (TE) of 3 msec, a bandwidth of 32 kHz, and 1 excitation. These images are used to select graphically the left and right hippocampus for solvent suppressed ^1H-MRS. Single-voxel ^1H-MRS of the hippocampus is performed using point-resolved spectroscopy (PRESS). […]
Analysis is performed on the main metabolites detected by MRS, that is, CDP choline, cytidine, cytidine 5′-monophosphate (CMP), cytidine 5′-diphosphate (CDP), cytidine 5′-triphosphate (CTP), deoxycytidine 5′-monophosphate (dCMP) , deoxycytidine 5′-diphosphate (dCDP), deoxycytidine 5′-triphosphate (dCTP), all expressed as a ratio of the administered uridine (Ur). When modeling the overall correlation between the administered uridine or uridine source and metabolite ratios, the measurements of metabolite ratios from the hippocampus on both sides of the brain of each subject analyzed by using repeated measures, with a compound symmetry covariance structure, to account for the within subject correlation.

Measured: increase in metabolite ratio as a function of administered uridine or uridine source

O=c1ccn([C@@H]2O[C@H](CO)[C@@H](O)[C@H]2O)c(=O)[nH]1 [uridine]
direct correlation: all assays above

From patent publication US8551452B2, “Uridine dietary supplementation compliance methods and use thereof” (Massachusetts Institute of Technology, priority 2007, dated 2013)
